From patent publication US20130116304A1, “TMEM195 ENCODES FOR TETRAHYDROBIOPTERIN-DEPENDENT ALKYLGLYCEROL MONOOXYGENASE ACTIVITY” (priority 2010, published 2013)
Each block holds one molecule with its values, some of them ahead of it.

Tests used:
[1] = biological target: T1, alkylglycerol monooxygenase (TMEM195) (Homo sapiens, UniProt Q6ZNB7); assay: Alkylglycerol monooxygenase activity generated in CHO cells by transfection of TMEM195 and ALDH3A2 (pyrenedecanoic acid, HPLC with fluorescence detection); assay type: biochemical; conditions: mean±SEM
T1 construct: host or cells: CHO-K1 cells, transiently transfected with ExGen 500; pellets opened in water with 0.5% CHAPS
T1 sequence (Q6ZNB7 1-445): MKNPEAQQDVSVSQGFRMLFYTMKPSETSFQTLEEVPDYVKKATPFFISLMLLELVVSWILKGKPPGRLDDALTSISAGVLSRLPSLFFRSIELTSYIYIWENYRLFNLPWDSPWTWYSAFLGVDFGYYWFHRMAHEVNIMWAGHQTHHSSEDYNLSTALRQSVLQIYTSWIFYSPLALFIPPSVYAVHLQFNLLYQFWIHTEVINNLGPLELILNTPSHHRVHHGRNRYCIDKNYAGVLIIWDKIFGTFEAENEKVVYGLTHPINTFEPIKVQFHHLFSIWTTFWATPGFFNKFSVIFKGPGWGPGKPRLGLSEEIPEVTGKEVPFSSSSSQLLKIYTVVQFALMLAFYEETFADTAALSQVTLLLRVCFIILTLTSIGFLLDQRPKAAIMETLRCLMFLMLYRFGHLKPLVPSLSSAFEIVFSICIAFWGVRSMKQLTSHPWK
Procedure: A pyrene-labelled alkylglycerol (1-O-pyrenedecyl-sn-glycerol) was used as substrate which was converted to pyrenedecanal by alkylglycerol monooxygenase. […] The reaction was started by addition of the protein and incubated for 60 min at 37° C. in the dark. Negative controls without protein (concentration of pyrenedecanoic acid <1 nM) and rat liver microsomes as positive controls were always run in parallel. After addition of 30 μl methanol and centrifugation for 5 min at 16,000 g, 10 μl of the sample were injected to a Zorbax XDB-C8 rapid resolution column (Agilent Technologies, Vienna, Austria) using an Agilent 1200 Series HPLC system. […] Pyrenedecanoic acid was detected by fluorescence (340 nm excitation and 400 nm emission, detection limit 1 nM).
80,000 Chinese hamster ovary Ki cells (CHO-K1, LGC Promochem, Wesel, Germany) were transfected with 1 μg of expression plasmids or plasmid pools using the ExGen 500 transfection agent (Fermentas, St. Leon-Rot, Germany) and standard protocols. […] For control of transfection efficiency, a plasmid encoding enhanced green fluorescent protein (pEGFP-N1, Clonetech, Mountain View, Calif., USA) was used and fluorescence quantified directly in the culture plates by a Typhoon 9410 scanner (GE Healthcare). […] Alkylglycerol monooxygenase activity (22) and fatty aldehyde dehydrogenase activity (31) were then determined as described.

[2] = biological target: T2, alkylglycerol monooxygenase (Rattus norvegicus, UniProt A0JPQ8); conditions: rat liver microsomes; from reference (22); cited from earlier work
T2 construct: those found in rat liver microsomes (KM 8.90 μM for 1-O-pyrenedecylglycerol); from tissue; host or cells: rat liver microsomes
T2 sequence (A0JPQ8 1-447): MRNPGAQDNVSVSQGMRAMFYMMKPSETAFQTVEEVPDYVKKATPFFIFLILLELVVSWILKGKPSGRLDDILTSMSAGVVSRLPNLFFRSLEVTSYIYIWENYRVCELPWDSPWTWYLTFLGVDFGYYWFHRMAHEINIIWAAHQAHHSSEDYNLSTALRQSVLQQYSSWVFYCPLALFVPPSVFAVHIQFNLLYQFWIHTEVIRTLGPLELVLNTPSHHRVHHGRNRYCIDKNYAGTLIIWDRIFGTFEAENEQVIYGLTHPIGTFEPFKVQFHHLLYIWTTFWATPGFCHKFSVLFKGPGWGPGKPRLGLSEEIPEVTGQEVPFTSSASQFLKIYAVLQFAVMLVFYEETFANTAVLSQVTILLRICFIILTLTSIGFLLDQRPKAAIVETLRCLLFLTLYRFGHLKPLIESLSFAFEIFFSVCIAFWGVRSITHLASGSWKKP

[3] = substrate: C[C@H](O)[C@H](O)[C@H]1CNc2nc(N)[nH]c(=O)c2N1; assay: purified protein, by the assay type; conditions: other: activity generated in CHO cells by transfection of TMEM195 and ALDH3A2; KM for substrate or cofactor; mean±SEM; 37.0 °C

Molecule: C[C@H](O)[C@H](O)[C@H]1CNc2nc(N)[nH]c(=O)c2N1 [tetrahydrobiopterin]
Km [2]: 2.6 µM

B1: alkylglycerol monooxygenase (TMEM195) (Homo sapiens) (protein)
chain: MKNPEAQQDVSVSQGFRMLFYTMKPSETSFQTLEEVPDYVKKATPFFISLMLLELVVSWILKGKPPGRLDDALTSISAGVLSRLPSLFFRSIELTSYIYIWENYRLFNLPWDSPWTWYSAFLGVDFGYYWFHRMAHEVNIMWAGHQTHHSSEDYNLSTALRQSVLQIYTSWIFYSPLALFIPPSVYAVHLQFNLLYQFWIHTEVINNLGPLELILNTPSHHRVHHGRNRYCIDKNYAGVLIIWDKIFGTFEAENEKVVYGLTHPINTFEPIKVQFHHLFSIWTTFWATPGFFNKFSVIFKGPGWGPGKPRLGLSEEIPEVTGKEVPFSSSSSQLLKIYTVVQFALMLAFYEETFADTAALSQVTLLLRVCFIILTLTSIGFLLDQRPKAAIMETLRCLMFLMLYRFGHLKPLVPSLSSAFEIVFSICIAFWGVRSMKQLTSHPWK
Km [3]: 2.58 ± 0.42 µM

Now from value to molecule, other results behind:

IC50 ([1]; activity generated in CHO cells by transfection, read-out: 50% inhibition of alkylglycerol monooxygenase activity): 1390 ± 380 nM
Molecule: c1cnc2c(c1)ccc1cccnc12 [1,10-Phenanthroline]

Km ([1]; activity generated in CHO cells by transfection of TMEM195 and ALDH3A2, KM for substrate or cofactor, read-out: Michaelis Menten constant (KM)): 11 ± 1.1 µM
Molecule: OC[C@H](O)COCCCCCCCCCCc1ccc2ccc3cccc4ccc1c2c34 [1-O-pyrenedecylglycerol, 1-O-pyrenedecyl-sn-glycerol]
Km [2]: 8.9 µM
